In ChEMBL document CHEMBL6120982, “Cell-penetrating anti-sense peptide nucleic acids targeting sulfatase 2 inhibit adipogenesis in human mesenchymal stem cells” (Bioorg Med Chem, 2024):
Blank lines part the entries; values can stand above or below the compound they belong to. Activity calls are given as the source filed them. The rule behind the calls is not given here.

Key:
DNA [1] = assay: Binding affinity to 10-mer DNA (unknown origin) assessed as melting temperature at 4 uM by UV-Vis spectrophotometric analysis; format: nucleic-acid assay
Mesenchymal stem cells [2] = assay: Cytotoxicity against human BMMSC cells assessed as effect on cell viability upto 1 uM incubated for 24 hrs by CCK8 assay; format: toxicity, cell-based
Mesenchymal stem cells [3] = assay: Effect on osteogenesis in ascorbic acid/dexamethasone/beta-glycerol phosphate differentiated human BMMSC cells; format: functional, cell-based
DNA [4] = assay: Binding affinity to N-terminal of 10-mer c-DNA (unknown origin) assessed as melting temperature at 4 uM by UV-Vis spectrophotometric analysis; format: nucleic-acid assay
DNA [5] = assay: Binding affinity to C-terminal of 10-mer c-DNA (unknown origin) assessed as melting temperature at 4 uM by UV-Vis spectrophotometric analysis; format: nucleic-acid assay
Mesenchymal stem cells [6] = assay: Inhibition of SULF2 mRNA expression in human BMMSC cells at 0.1 uM by RT-qPCR analysis; format: functional, cell-based
Mesenchymal stem cells [7] = assay: Anti-adipogenic activity in insulin/dexamthasone/pioglitazone/IBMX differentiated human BMMSC cells assessed as downregulation of adiponectin protein secretion by ELISA; format: functional, cell-based
Mesenchymal stem cells [8] = assay: Inhibition of SULF2 mRNA expression in human BMMSC cells by RT-qPCR analysis; format: functional, cell-based; conditions: dose 0.01-1 µM
Mesenchymal stem cells [9] = assay: Anti-adipogenic activity in insulin/dexamthasone/pioglitazone/IBMX differentiated human BMMSC cells assessed as downregulation of adiponectin protein secretion at 1 uM by ELISA; format: functional, cell-based

Compound: NCCCCCNc1nc(N)c2ncn(CC(=O)N(CCNC(=O)CN(CCNC(=O)CN(CCNC(=O)CN(CCNC(=O)CN(CCN)C(=O)Cn3cnc4c(=O)[nH]c(N)nc43)C(=O)Cn3ccc(N)nc3=O)C(=O)Cn3cnc4c(N)ncnc43)C(=O)Cn3cnc4c(=O)[nH]c(N)nc43)CC(=O)NCCN(CC(=O)NCCN(CC(=O)NCCN(CC(=O)NCCN(CC(=O)NCCN(CC(N)=O)C(=O)Cn3cnc4c(=O)[nH]c(N)nc43)C(=O)Cn3cnc4c(N)ncnc43)C(=O)Cn3cnc4c(=O)[nH]c(N)nc43)C(=O)Cn3ccc(N)nc3=O)C(=O)Cn3cnc4c(=O)[nH]c(N)nc43)c2n1
Tm (DNA [1]): 75.9 °C

Compound: NCCN(CC(=O)NCCN(CC(=O)NCCN(CC(=O)NCCN(CC(=O)NCCN(CC(=O)NCCN(CC(=O)NCCN(CC(=O)NCCN(CC(=O)NCCN(CC(=O)NCCN(CC(N)=O)C(=O)Cn1ccc(N)nc1=O)C(=O)Cn1cnc2c(=O)[nH]c(N)nc21)C(=O)Cn1cnc2c(N)ncnc21)C(=O)Cn1cnc2c(=O)[nH]c(N)nc21)C(=O)Cn1cnc2c(N)ncnc21)C(=O)Cn1ccc(N)nc1=O)C(=O)Cn1cnc2c(N)ncnc21)C(=O)Cn1cnc2c(=O)[nH]c(N)nc21)C(=O)Cn1cnc2c(N)ncnc21)C(=O)Cn1ccc(N)nc1=O
Tm (DNA [1]): 71 °C

Compound: NCCCCCCNc1nc2c(ncn2CC(=O)N(CCN)CC(=O)NCCN(CC(=O)NCCN(CC(=O)NCCN(CC(=O)NCCN(CC(=O)NCCN(CC(=O)NCCN(CC(=O)NCCN(CC(=O)NCCN(CC(=O)NCCN(CC(N)=O)C(=O)Cn2cnc3c(=O)[nH]c(N)nc32)C(=O)Cn2cnc3c(N)ncnc32)C(=O)Cn2cnc3c(=O)[nH]c(N)nc32)C(=O)Cn2ccc(N)nc2=O)C(=O)Cn2cnc3c(=O)[nH]c(N)nc32)C(=O)Cn2cnc3c(N)nc(NCCCCCN)nc32)C(=O)Cn2cnc3c(=O)[nH]c(N)nc32)C(=O)Cn2cnc3c(N)ncnc32)C(=O)Cn2ccc(N)nc2=O)c(=O)[nH]1
Tm (DNA [1]): 76.9 °C

Compound: Cc1cn(CC(=O)N(CCNC(=O)CN(CCNC(=O)CN(CCNC(=O)CN(CCNC(=O)CN(CCNC(=O)CN(CCNC(=O)CN(CCNC(=O)CN(CCNC(=O)CN(CCNC(=O)CN(CCNC(=O)CN(CCNC(=O)CN(CCNC(=O)CN(CCNC(=O)CN(CCNC(=O)CN(CCNC(=O)CN(CCNC(=O)CN(CCNC(=O)CN(CCNC(=O)CN(CCNC(=O)OCCC2c3ccccc3-c3ccccc32)C(=O)Cn2ccc(N)nc2=O)C(=O)Cn2cc3cc(COCCN)[nH]c3nc2=O)C(=O)Cn2ccc(N)nc2=O)C(=O)Cn2cc(C)c(=O)[nH]c2=O)C(=O)Cn2cnc3c(=O)[nH]c(NCCCCCCN)nc32)C(=O)Cn2ccc(N)nc2=O)C(=O)Cn2cc(C)c(=O)[nH]c2=O)C(=O)Cn2ccc(N)nc2=O)C(=O)Cn2cnc3c(=O)[nH]c(NCCCCCN)nc32)C(=O)Cn2ccc(N)nc2=O)C(=O)Cn2ccc(N)nc2=O)C(=O)Cn2cc(C)c(=O)[nH]c2=O)C(=O)Cn2cnc3c(=O)[nH]c(NCCCCCCN)nc32)C(=O)Cn2cc(C)c(=O)[nH]c2=O)C(=O)Cn2ccc(N)nc2=O)C(=O)Cn2ccc(N)nc2=O)C(=O)Cn2cnc3c(=O)[nH]c(NCCCCCCN)nc32)C(=O)Cn2cnc3c(=O)[nH]c(N)nc32)CC(=O)NCCN(N)C(=O)Cn2cnc3c(N)ncnc32)c(=O)[nH]c1=O
Activity (Mesenchymal stem cells [2]): Non-toxic
Activity (Mesenchymal stem cells [3]): inactive
Tm (DNA [4]): 77 °C
Tm (DNA [5]): 63.5 °C
inhibition (Mesenchymal stem cells [6]): inactive

Compound: Cc1cn(CC(=O)N(CCNC(=O)CN(CCNC(=O)CN(CCNC(=O)CN(CCNC(=O)CN(CCNC(=O)CN(CCNC(=O)CN(CCNC(=O)CN(CCNC(=O)CN(CCNC(=O)CN(CCNC(=O)CN(CCNC(=O)CN(CCNC(=O)CN(CCNC(=O)CN(CCNC(=O)CN(CCNC(=O)CN(CCNC(=O)CN(CCNC(=O)CN(CCNC(=O)CN(CCNC(=O)CN(CCNC(=O)OCCC2c3ccccc3-c3ccccc32)C(=O)Cn2cnc3c(=O)[nH]c(N)nc32)C(=O)Cn2cnc3c(=O)[nH]c(NCCCCCCN)nc32)C(=O)Cn2cnc3c(=O)[nH]c(N)nc32)C(=O)Cn2cnc3c(=O)[nH]c(N)nc32)C(=O)Cn2cc3cc(COCCN)[nH]c3nc2=O)C(=O)Cn2ccc(N)nc2=O)C(=O)Cn2ccc(N)nc2=O)C(=O)Cn2cnc3c(N)nc(NCCCCCN)nc32)C(=O)Cn2cc(C)c(=O)[nH]c2=O)C(=O)Cn2ccc(N)nc2=O)C(=O)Cn2cc(C)c(=O)[nH]c2=O)C(=O)Cn2cc(C)c(=O)[nH]c2=O)C(=O)Cn2cc3cc(COCCN)[nH]c3nc2=O)C(=O)Cn2cc(C)c(=O)[nH]c2=O)C(=O)Cn2cc(C)c(=O)[nH]c2=O)C(=O)Cn2cc(C)c(=O)[nH]c2=O)C(=O)Cn2cc(C)c(=O)[nH]c2=O)C(=O)Cn2cc(C)c(=O)[nH]c2=O)C(=O)Cn2cc(C)c(=O)[nH]c2=O)CC(N)=O)c(=O)[nH]c1=O
IC50 (Mesenchymal stem cells [7]): > 1000 nM
Activity (Mesenchymal stem cells [2]): Non-toxic
Activity (Mesenchymal stem cells [3]): inactive
Tm (DNA [4]): > 90 °C
inhibition (Mesenchymal stem cells [6]): Mild_effect
inhibition (Mesenchymal stem cells [8]): Dose-dependent-effect
Activity (Mesenchymal stem cells [9]): Active

Compound: Cc1cn(CC(=O)N(CCNC(=O)CN(CCNC(=O)CN(CCNC(=O)CN(CCNC(=O)CN(CCNC(=O)CN(CCNC(=O)CN(CCNC(=O)CN(CCNC(=O)CN(CCNC(=O)CN(CCNC(=O)CN(CCNC(=O)CN(CCNC(=O)CN(CCNC(=O)CN(CCNC(=O)CN(CCNC(=O)CN(CCNC(=O)CN(CCNC(=O)CN(CCNC(=O)OCCC2c3ccccc3-c3ccccc32)C(=O)Cn2cc(C)c(=O)[nH]c2=O)C(=O)Cn2cnc3c(=O)[nH]c(N)nc32)C(=O)Cn2ccc(N)nc2=O)C(=O)Cn2cnc3c(N)nc(NCCCCCN)nc32)C(=O)Cn2cc(C)c(=O)[nH]c2=O)C(=O)Cn2cnc3c(=O)[nH]c(N)nc32)C(=O)Cn2cnc3c(=O)[nH]c(N)nc32)C(=O)Cn2cnc3c(N)nc(NCCCCCN)nc32)C(=O)Cn2cnc3c(N)ncnc32)C(=O)Cn2ccc(N)nc2=O)C(=O)Cn2cc3cc(COCCN)[nH]c3nc2=O)C(=O)Cn2cc(C)c(=O)[nH]c2=O)C(=O)Cn2cnc3c(=O)[nH]c(N)cc32)C(=O)Cn2ccc(N)nc2=O)C(=O)Cn2cnc3c(N)nc(NCCCCCN)nc32)C(=O)Cn2cnc3c(N)ncnc32)C(=O)Cn2cnc3c(=O)[nH]c(NCCCCCCN)nc32)CC(=O)NCCN(CC(=O)NCCN(CC(N)=O)C(=O)Cn2cnc3c(N)ncnc32)C(=O)Cn2ccc(N)nc2=O)c(=O)[nH]c1=O
Activity (Mesenchymal stem cells [2]): Non-toxic
Activity (Mesenchymal stem cells [3]): inactive
Tm (DNA [4]): 66.4 °C
Tm (DNA [5]): 51.1 °C
inhibition (Mesenchymal stem cells [6]): inactive

Continued, values first:

Tm (DNA [1]): 66.2 °C
Compound: Cc1cn(CC(=O)N(CCN)CC(=O)NCCN(CC(=O)NCCN(CC(=O)NCCN(CC(=O)NCCN(CC(=O)NCCN(CC(=O)NCCN(CC(=O)NCCN(CC(=O)NCCN(CC(=O)NCCN(CC(N)=O)C(=O)Cn2cnc3c(N)ncnc32)C(=O)Cn2ccc(N)nc2=O)C(=O)Cn2cnc3c(=O)[nH]c(N)nc32)C(=O)Cn2cnc3c(N)ncnc32)C(=O)Cn2ccc(N)nc2=O)C(=O)Cn2cnc3c(N)ncnc32)C(=O)Cn2cnc3c(=O)[nH]c(N)nc32)C(=O)Cn2cnc3c(N)ncnc32)C(=O)Cn2ccc(N)nc2=O)c(=O)[nH]c1=O

Tm (DNA [1]): 69.2 °C
Compound: NCCCCCNc1nc(N)c2ncn(CC(=O)N(CCNC(=O)CN(CCNC(=O)CN(CCNC(=O)CN(CCNC(=O)CN(CCNC(=O)CN(CCN)C(=O)Cn3cnc4c(N)ncnc43)C(=O)Cn3cnc4c(=O)[nH]c(N)nc43)C(=O)Cn3ccc(N)nc3=O)C(=O)Cn3cnc4c(N)ncnc43)C(=O)Cn3ccc(N)nc3=O)CC(=O)NCCN(CC(=O)NCCN(CC(=O)NCCN(CC(=O)NCCN(CC(N)=O)C(=O)Cn3cnc4c(N)ncnc43)C(=O)Cn3ccc(N)nc3=O)C(=O)Cn3cnc4c(N)ncnc43)C(=O)Cn3cnc4c(=O)[nH]c(N)nc43)c2n1

Tm (DNA [1]): 77.2 °C
Compound: NCCOCc1cc2cn(CC(=O)N(CCNC(=O)CN(CCNC(=O)CN(CCNC(=O)CN(CCNC(=O)CN(CCN)C(=O)Cn3ccc(N)nc3=O)C(=O)Cn3cnc4c(N)ncnc43)C(=O)Cn3cnc4c(=O)[nH]c(N)nc43)C(=O)Cn3cnc4c(N)ncnc43)CC(=O)NCCN(CC(=O)NCCN(CC(=O)NCCN(CC(=O)NCCN(CC(=O)NCCN(CC(N)=O)C(=O)Cn3ccc(N)nc3=O)C(=O)Cn3cnc4c(=O)[nH]c(N)nc43)C(=O)Cn3cnc4c(N)ncnc43)C(=O)Cn3cnc4c(=O)[nH]c(N)nc43)C(=O)Cn3cnc4c(N)ncnc43)c(=O)nc2[nH]1

Tm (DNA [1]): 65.2 °C
Compound: NCCN(CC(=O)NCCN(CC(=O)NCCN(CC(=O)NCCN(CC(=O)NCCN(CC(=O)NCCN(CC(=O)NCCN(CC(=O)NCCN(CC(=O)NCCN(CC(=O)NCCN(CC(N)=O)C(=O)Cn1cnc2c(N)ncnc21)C(=O)Cn1ccc(N)nc1=O)C(=O)Cn1cnc2c(N)ncnc21)C(=O)Cn1cnc2c(=O)[nH]c(N)nc21)C(=O)Cn1cnc2c(N)ncnc21)C(=O)Cn1ccc(N)nc1=O)C(=O)Cn1cnc2c(N)ncnc21)C(=O)Cn1ccc(N)nc1=O)C(=O)Cn1cnc2c(=O)[nH]c(N)nc21)C(=O)Cn1cnc2c(N)ncnc21

Tm (DNA [1]): 76.4 °C
Compound: Cc1cn(CC(=O)N(CCN)CC(=O)NCCN(CC(=O)NCCN(CC(=O)NCCN(CC(=O)NCCN(CC(=O)NCCN(CC(=O)NCCN(CC(=O)NCCN(CC(=O)NCCN(CC(=O)NCCN(CC(N)=O)C(=O)Cn2cnc3c(N)ncnc32)C(=O)Cn2cc3cc(COCCN)[nH]c3nc2=O)C(=O)Cn2cnc3c(=O)[nH]c(N)nc32)C(=O)Cn2cnc3c(N)ncnc32)C(=O)Cn2cc3cc(COCCN)[nH]c3nc2=O)C(=O)Cn2cnc3c(N)ncnc32)C(=O)Cn2cnc3c(=O)[nH]c(N)nc32)C(=O)Cn2cnc3c(N)ncnc32)C(=O)Cn2ccc(N)nc2=O)c(=O)[nH]c1=O

Tm (DNA [1]): 74.8 °C
Compound: NCCCCCCNc1nc2c(ncn2CC(=O)N(CCNC(=O)CN(CCNC(=O)CN(CCNC(=O)CN(CCNC(=O)CN(CCNC(=O)CN(CCN)C(=O)Cn2cnc3c(=O)[nH]c(N)nc32)C(=O)Cn2ccc(N)nc2=O)C(=O)Cn2cnc3c(N)ncnc32)C(=O)Cn2cnc3c(=O)[nH]c(NCCCCCCN)nc32)C(=O)Cn2cnc3c(N)nc(NCCCCCN)nc32)CC(=O)NCCN(CC(=O)NCCN(CC(=O)NCCN(CC(=O)NCCN(CC(N)=O)C(=O)Cn2cnc3c(=O)[nH]c(N)nc32)C(=O)Cn2cnc3c(N)ncnc32)C(=O)Cn2cnc3c(=O)[nH]c(NCCCCCCN)nc32)C(=O)Cn2ccc(N)nc2=O)c(=O)[nH]1
